Source: patent US11434492B2, “Ribosome-mediated incorporation of peptides and peptidomimetics” (Arizona Board of Regents on behalf of Arizona State …, priority 2015, dated 2022)
Where “and” joins values, the source holds several entries; their conditions need not be identical. Equal entries are not always repeated. Peptide text beside a SMILES is read from it.

What was measured:
[1] = test system: modified ribosomes (23S rRNA modified); test: In vitro translation: suppression of UAG codon at position 10 of DHFR mRNA, S-30 systems having modified ribosomes; format: biochemical, E. coli; conditions: for Suppression efficiency in different S-30 systems, having modified ribosomes (%): position 10 of E. coli DHFR, relative to wild-type DHFR = 100
Method: Preparation of Aminoacyl-tRNACUAs. The activation of suppressor tRNACUAs was carried out as described previously.^4,5 Briefly, 100-μL reaction mixture of 100 mM Na Hepes, pH 7.5, contained 1.0 mM ATP, 15 mM MgCl2, 100 μg of suppressor tRNACUA-COH, 0.5 A260 unit of N-pentenoyl-protected aminoacyl-pdCpA, 15% DMSO, and 100 units of T4 RNA ligase. The reaction mixture was incubated at 37° C. for 1.5 h and quenched by the addition of 0.1 vol of 3 M NaOAc, pH 5.2. The N-protected aminoacylated tRNA was precipitated with 3 vol of cold ethanol. The efficiency of ligation was estimated by 8% polyarylamide-7 M urea gel electrophoresis (pH 5.0).
The N-pentenoyl-protected aminoacyl-tRNACUAs were deprotected by treatment with 5 mM aqueous […] at 25° C. for 15 min. The solution was centrifuged, and the supernatant was adjusted to 0.3 M NaOAc and treated with 3 vol of cold ethanol to precipitate the aminoacylated tRNA. The tRNA pellet was collected by centrifugation, washed with 70% aq EtOH, air dried and dissolved in 20 μL of RNase free water.
Preparation of S-30 Extracts from Cells Having Modified Ribosomes. Aliquots (5-10 μL) from liquid stocks of E. coli BL-21 (DE-3) cells, harboring plasmids with a wild-type or modified rrnB gene, were placed on LB agar supplemented with 100 µg/mL of ampicillin and grown at 37° C. for 16-18 h. One colony was picked from each agar plate and transferred into 3 mL of LB medium supplemented with 100 μg/mL of ampicillin and 0.5 mM IPTG.
(§1) In vitro Protein Translation. Protein translation reactions were carried out in 12-2000 μL of incubation mixture containing 0.4 μL/μL of S-30 system, 100 ng/μL of plasmid, 35 mM Tris acetate, pH 7.4, 190 mM potassium glutamate, 30 mM ammonium acetate, 2 mM DTT, 0.2 mg/mL total E. coli tRNA, 3.5% PEG 6000, 20 μg/mL folinic acid, 20 mM ATP and GTP, 5 mM CTP and UTP, 100 μM amino acids mixture, 0.5 μCi/μL of ^35S-methionine for analytical purposes only and 1 μg/mL rifampicin. In the case of plasmids having a gene with a TAG codon, a suppressor tRNA was added to a concentration of 0.8 μg/μL. Reactions were carried out at 37° C. for 1 h (for 12 μL reaction mixtures) to 1.5 h (for 2000 μL reaction mixtures) and terminated by chilling on ice. Aliquots from in vitro translation mixtures were analyzed by SDS-PAGE followed by quantification of the radioactive bands by phosphorimager analysis.
Incorporation of Dipeptides 2, 3 and 4 into DHFR Using the Modified Ribosomes. Initially, glycylphenylalanine (2) was chosen to screen the selected modified ribosomes for their ability to incorporate a dipeptide into DHFR. It was anticipated that minimal steric hindrance and more flexibility at the N-terminus of the dipeptide (a glycine residue) would enable optimal positioning of the amine for a nucleophilic attack in the PTC of the modified ribosomes. A modified DHFR construct, having a TAG codon in position 10 (pETDH10 plasmid) was used for the incorporation of glycylphenylalanine.
The suppression efficiencies were expressed relative to the wild-type DHFR synthesis. As a negative control, wild-type DHFR synthesis in the presence of nonacylated-tRNACUA was measured for each experiment. The amounts of DHFR produced were quantified with a phosphoimager, which monitored the incorporation of ^35S-methionine into DHFR. Using glycylphenylalanyl-tRNACUA, S-30 preparations having the modified ribosomes from clone groups 1, 2, 3 and 9 produced full length DHFR in ˜9% yields relative to the wild-type DHFR synthesis (Table 3). The modified ribosomes from clone groups 4-8 incorporated glycylphenylalanine (2) with low yields (˜2-4%). For dipeptide 2, best incorporation yields (up to 12%) were obtained by S-30 system having modified ribosomes from clone group 9 (2057AGUGAGA2063 and 2502AUCCGA2507).

wild-type ribosomes = test: In vitro translation: suppression of UAG codon at position 10 of DHFR mRNA, S-30 preparation having wild-type ribosomes; format: biochemical, E. coli; conditions: compared to wild-type DHFR synthesis
Method: as §1
Incorporation of Glycylphenylalanine (2) Using the Wild-Type Ribosome. The wild-type ribosomes synthesize polypeptide chains by incorporating one α-L-amino acid at a time via one monoacylated tRNA for each corresponding codon in the mRNA transcript.^6 Ribosome mediated sequential incorporation of two amino acids for one codon using bisacylated tRNAs has not been reported to date. […]

[2] = test system: modified ribosomes from clone 010326R6; test: In vitro translation: suppression of TAG codon at position 66 of GFP (pETGFP66), S-30 from clone 010326R6; format: biochemical, Escherichia coli
Method: as §1
The free amino acids both have λex in the range 296-302 nm but the λem of 7 is somewhat red-shifted compared to that of 6. […] As a negative control, wild-type GFP synthesis from the modified mRNA in the presence of nonacylated tRNACUA was measured for each experiment. The amounts of GFP produced were quantified with a phosphoimager, which monitored the incorporation of ^35S-methionine into proteins. […]

[3] = test system: E. coli clones having mutations in two regions of the PTC in the 23S rRNA (modified ribosomes); test: Inhibition of cell growth by dipeptidyl-puromycin aminonucleoside 1 (selection of modified ribosomes); format: cell-based; conditions: 100 μg/mL 1
Method: Selection of Modified Ribosomes using Dipeptidyl-puromycin Aminonucleoside The selection experiments were carried on in a fashion similar to that described previously. (1) Briefly, library from 419 clones, having mutations in two regions of the PTC in the 23S rRNA (2057-2063 and 2496-2501 or 2502-2507) and organized in five 96 well plates (“master plates”), were used for selection of variants with modified ribosome. Three new plates were prepared for each “master plate” by transferring 2 μL of culture from each well of the master plate to the corresponding well of new plate and 98 μL assay solution was added to each well.
A solution without any puromycin derivative was used for control plate. All plates were incubated at 37° C. for 16-18 h in a thermostated shaker, and extent of cell growth was estimated by measuring the optical density at 600 nm. Inhibition of cell growth by 1 was estimated as described in previously. Clones with inhibition value more than 50% were taken for verification. […] Plates were incubated at 37° C. for 16-18 h in a thermostated shaker, extent of cell growth was estimated by measuring the optical density at 600 nm and IC50 data was calculated for each culture.
It was anticipated that the ribosomes of those clones which show sensitivity for 1 would be more likely to accommodate dipeptides or dipeptidomimetics in the PTC during peptide synthesis. […] Plasmids from these clones were isolated and sequenced.

NCC(=O)N[C@@H](Cc1ccccc1)C(=O)O [dipeptide 2, glycylphenylalanine] (H-Gly-Phe-OH)
Suppression efficiency in different S-30 systems, having modified ribosomes (%) ([1]; clone group 1): ~9% and 8.4 ± 1.6% | Suppression efficiency in different S-30 systems, having modified ribosomes (%) ([1]; clone group 2): ~8% and 9.5 ± 0.5% | Suppression efficiency in different S-30 systems, having modified ribosomes (%) ([1]; clone group 3): 9% and 8.6 ± 1.5% | Suppression efficiency in different S-30 systems, having modified ribosomes (%) ([1]; clone group 4): 3.1 ± 0.2% | Suppression efficiency in different S-30 systems, having modified ribosomes (%) ([1]; clone group 5): 4.5 ± 0.7% | Suppression efficiency in different S-30 systems, having modified ribosomes (%) ([1]; clone group 6): 3.5% | Suppression efficiency in different S-30 systems, having modified ribosomes (%) ([1]; clone group 7): 2.1 ± 0.1% | Suppression efficiency in different S-30 systems, having modified ribosomes (%) ([1]; clone group 8): 2.2% | full length DHFR yield relative to the wild-type DHFR synthesis ([1]; clone groups 1, 2, 3 and 9, position 10 of DHFR): ~9% | incorporation yield relative to the wild-type DHFR synthesis ([1]; clone groups 4-8, position 10 of DHFR): 2-4% | suppression efficiency (wild-type ribosomes): ~2%

N[C@@H](Cc1ccccc1)C(=O)NCC(=O)O [dipeptide 3, phenylalanylglycine] (H-Phe-Gly-OH)
Suppression efficiency in different S-30 systems, having modified ribosomes (%) ([1]; clone group 1): ~14% and 13.9 ± 1.7% | Suppression efficiency in different S-30 systems, having modified ribosomes (%) ([1]; clone group 2): ~12% and 10.6 ± 0.5% | Suppression efficiency in different S-30 systems, having modified ribosomes (%) ([1]; clone group 3): 10% and 12.7 ± 2.5% | Suppression efficiency in different S-30 systems, having modified ribosomes (%) ([1]; clone group 9): ~13% and 13.3 ± 2.5%

COc1ccc(-c2sc(CN)nc2C(=O)O)cc1 [dipeptidomimetic 7]
suppression yield (full length GFP) relative to wild-type GFP synthesis [2]: ~3.5%

COc1ccc(C[C@H](N)C(=O)NCC(=O)N[C@H]2[C@@H](O)[C@H](n3cnc4c(N(C)C)ncnc43)O[C@@H]2CO)cc1 [puromycin derivative 1, 9-[3″-Deoxy-3″-(O-methyl-(S)-tyrosylglycyl)-β-D-ribofuranosyl]-6-(N,N″ dimethylamino)purine]
Inhibition by Puromycin Derivative 1 (%) ([3]; Wild-type ribosomes): <1% | Inhibition by Puromycin Derivative 1 (%) ([3]; clone 010309R3 (clone group 1)): 63.2% | Inhibition by Puromycin Derivative 1 (%) ([3]; clone 010310R1 (clone group 4)): 52.9% | Inhibition by Puromycin Derivative 1 (%) ([3]; clone 010310R4 (clone group 2)): 52.9% | Inhibition by Puromycin Derivative 1 (%) ([3]; clone 010322 (clone group 1)): 77% | Inhibition by Puromycin Derivative 1 (%) ([3]; clone 010326R1 (clone group 5)): 50.4% | Inhibition by Puromycin Derivative 1 (%) ([3]; clone 010326R5 (clone group 3)): 50.4% | Inhibition by Puromycin Derivative 1 (%) ([3]; clone 010326R6 (clone group 1)): 50.4% | Inhibition by Puromycin Derivative 1 (%) ([3]; clone 010328R2 (clone group 5)): 77% | Inhibition by Puromycin Derivative 1 (%) ([3]; clone 010328R4 (clone group 1)): 61% | Inhibition by Puromycin Derivative 1 (%) ([3]; clone 040322 (clone group 6)): 54% | Inhibition by Puromycin Derivative 1 (%) ([3]; clone 040329 (clone group 7)): 54% | Inhibition by Puromycin Derivative 1 (%) ([3]; clone 040338 (clone group 8)): 56% | Inhibition by Puromycin Derivative 1 (%) ([3]; clone 080337 (clone group 9)): 51%

phenylalanylphenylalanyl [dipeptide 4]
Suppression efficiency in different S-30 systems, having modified ribosomes (%) ([1]; clone group 1): ~4%
